Assay results published in patent US9936701B2, “Herbicidal compounds” (Syngenta Participations AG, priority 2013, dated 2018).

Legend:
[1] = test system: a variety of test species; experiment: Pre-emergence herbicidal activity (glasshouse, sprayed one day after sowing, evaluated after 13 days); type: in vivo; set-up: key: 5=total damage to plant; 0=no damage to plant; conditions: application pre-emergence, rate 1000 g/Ha, scale 0-5
Outline: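 Visual 0–5 injury score (5 = total damage) taken 13 days after spraying. Treatment applied one day after sowing, before emergence; glasshouse at 24/16 °C day/night, 14 h photoperiod, 65% humidity.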

[2] = test system: a variety of test species; experiment: Post-emergence herbicidal activity (glasshouse, sprayed after 8 days cultivation, evaluated after 13 days); type: in vivo; set-up: key: 5=total damage to plant; 0=no damage to plant; conditions: rate 1000 g/Ha, scale 0-5
Outline: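 Pot-grown seedlings sprayed 8 days after sowing with active ingredient in acetone/water (50:50) plus 0.5% Tween 20. Glasshouse at 24/16 °C day/night, 14 h light, 65% humidity, watered twice daily. Damage scored after 13 days on a 0–5 scale (5 = total damage, 0 = none).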

| SMILES | Pre-emergence herbicidal damage score, ABUTH [1] | Pre-emergence herbicidal damage score, ALOMY [1] | Pre-emergence herbicidal damage score, AMARE [1] | Pre-emergence herbicidal damage score, ECHCG [1] | Pre-emergence herbicidal damage score, SETFA [1] | Pre-emergence herbicidal damage score, ZEAMX [1] | ABUTH (Abutilon theophrasti) damage score, application post-emergence [2] | ALOMY (Alopecurus myosuroides) damage score, application post-emergence [2] | AMARE (Amaranthus retroflexus) damage score, application post-emergence [2] | ECHCG (Echinochloa crus-galli) damage score, application post-emergence [2] | SETFA (Setaria faberi) damage score, application post-emergence [2] | ZEAMX (Zea mays) damage score, application post-emergence [2] | melting point [°C] |
| --- | --- | --- | --- | --- | --- | --- | --- | --- | --- | --- | --- | --- | --- |
| CC1=C(Cl)C(=O)N(c2cc(C(C)(C)C#N)on2)C1 [A104] | 5 | 4 | 5 | 5 | 5 | 2 | 5 | 5 | 5 | 5 | 5 | 5 | 141 to 143 |
| COC1=C(Br)C(=O)N(c2cc(C(C)(C)C)on2)C1O (stereo not shown) [B2] | 5 | 4 | 5 | 5 | 4 | 1 | 5 | 4 | 5 | 5 | 4 | 5 | 140 to 160 |
| C=CCNC1=C(Cl)C(=O)N(c2cc(C(C)(C)C)on2)C1O (stereo not shown) [C7] | 5 | 3 | 5 | 5 | 3 | 2 | 5 | 4 | 5 | 5 | 5 | 3 | 163 to 164 |
| CC(C)(C)c1cc(N2C(=O)C(Cl)=C(NC3CC3)C2O)no1 (stereo not shown) [C8] | 5 | 3 | 5 | 5 | 3 | 2 | 5 | 4 | 5 | 5 | 5 | 4 | 179 to 180 |
| COC1=C(C)C(O)N(c2cc(C(C)(C)C)on2)C1=O (stereo not shown) [D1, 1-(5-tert-butylisoxazol-3-yl)-2-hydroxy-4-methoxy-3-methyl-2H-pyrrol-5-one] | 5 | 4 | 5 | 4 | 5 | 2 | 5 | 4 | 5 | 5 | 5 | 4 | 82 to 95 |
| COC1=C(C)C(O)N(c2noc(C(C)(C)C)c2C#N)C1=O (stereo not shown) [D2, 5-tert-butyl-3-(2-hydroxy-4-methoxy-3-methyl-5-oxo-2H-pyrrol-1-yl)isoxazole-4-carbonitrile] | 5 | 3 | 5 | 4 | 5 | 3 | 5 | 5 | 5 | 5 | 5 | 4 | 98 to 100 |
| COC1=C(C)C(O)N(c2noc(C(C)C)c2C#N)C1=O (stereo not shown) [D3] | 4 | 3 | 5 | 5 | 5 | 2 | 5 | 5 | 5 | 5 | 5 | 4 | 99 to 101 |
| COC1=C(C)C(O)N(c2cc(C(C)(C)C#N)on2)C1=O (stereo not shown) [D4] | 5 | 4 | 5 | 5 | 5 | 3 | 5 | 5 | 5 | 5 | 5 | 5 | 123 to 125 |
| CCC(C)(C)c1onc(N2C(=O)C(OC)=C(C)C2O)c1C#N (stereo not shown) [D5] | 5 | 4 | 5 | 5 | 5 | 2 | 5 | 5 | 5 | 5 | 5 | 5 | 79 to 81 |
| CCOC1=C(C)C(O)N(c2cc(C(C)(C)C#N)on2)C1=O (stereo not shown) [D6] | 5 | 4 | 5 | 5 | 4 | 3 | 5 | 4 | 5 | 5 | 5 | 2 | 90 to 92 |
| COC1=C(C)C(OC(C)=O)N(c2cc(C(C)(C)C)on2)C1=O (stereo not shown) [D7] | 5 | 3 | 5 | 4 | 5 | 2 | 5 | 4 | 5 | 5 | 5 | 3 | 118 to 124 |
| CCOC1=C(C)CN(c2cc(C(C)(C)C#N)on2)C1=O [D8] | 3 | 2 | 4 | 3 | 4 | 2 | 4 | 3 | 5 | 4 | 3 | 0 | 127 to 129 |
| COC1=C(C)CN(c2noc(C(C)C)c2C#N)C1=O [D10] | 4 | 3 | 5 | 5 | 5 | 2 | 4 | 5 | 5 | 5 | 5 | 2 | 131 to 133 |
